Among the data in publication PMC12916490 (Molecular Psychiatry, 2025) are Ki values, retold here.

The structures appear in SMILES notation. pKi: −log10 of the molar value.

The target in this test is T1, hα2A (Homo sapiens, UniProt P08913).
T1 construct: expressed in transfected cells; host or cells: Chinese hamster lung cells (membrane preparation)
T1 sequence (P08913 1-465): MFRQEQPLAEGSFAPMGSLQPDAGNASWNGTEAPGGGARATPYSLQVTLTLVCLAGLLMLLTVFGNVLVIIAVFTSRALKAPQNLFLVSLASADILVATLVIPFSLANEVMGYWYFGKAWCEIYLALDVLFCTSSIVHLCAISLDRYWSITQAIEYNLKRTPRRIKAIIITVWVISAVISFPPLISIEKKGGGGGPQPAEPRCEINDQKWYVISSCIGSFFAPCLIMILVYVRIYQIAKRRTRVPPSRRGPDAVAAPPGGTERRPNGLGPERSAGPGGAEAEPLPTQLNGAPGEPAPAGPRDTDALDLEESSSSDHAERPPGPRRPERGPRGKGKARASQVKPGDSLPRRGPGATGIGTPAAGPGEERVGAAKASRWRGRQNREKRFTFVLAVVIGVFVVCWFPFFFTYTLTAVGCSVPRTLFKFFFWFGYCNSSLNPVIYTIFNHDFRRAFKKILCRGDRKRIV
Description: Radioligand binding, hα2A receptor ([3H]rauwolscine). As for the experimental part:
Binding affinities at human monoamine receptors and transporters were assessed as previously reported. A detailed description of the methodology is provided in the Supplementary information.
Data analysis was performed with Prism software (version 10.1.2, GraphPad Software, Boston, MA, USA). The IC50 values from the radioligand binding assays were determined by nonlinear regression, using three independent concentration-response curves fitted to a one-site model. The Cheng-Prusoff equation was used to calculate Kᵢ values for the competing ligands. EC50 values were determined by applying nonlinear regression to concentration-response curves. Bias factors (β) were calculated based on the relative intrinsic activity approach. More detailed information can be found in the Supplementary information. Mean values for total number of HTR, change in body temperature from pre to post session (Δ°C), and total distance traveled (cm) for each drug dose were compared (p < 0.05) via Welch’s ANOVA with Dunnett’s T3 post test, comparing all doses to respective vehicle controls (0 mg/kg). Welch’s ANOVA with Dunnett’s T3 post test was also used to compare drug concentrations, but the data were compared to DOM in this case. Dose–response relationships for HTR and locomotor activities were plotted using bell-shaped curve fits, while temperature change data were plotted using four-parameter non-linear regression curve fits. The ascending phase of the HTR curve for each drug was used to determine ED50 potency values from four parameter non-linear regression fits. For combined DOM and DOAM administration, the plasma, brain tissue, and brain dialysate drug concentrations were compared using paired t-tests (p < 0.05). Ratios were compared using Holm-Sidak’s post hoc test following a repeated-measures one-way ANOVA (F (1.709, 6.835) = 70.80; p < 0.0001).
3.1 Assessment of receptor and transporter binding affinities
Membrane preparations were prepared from cells transfected with the respective target. The membrane preparations were then incubated with selective radioligands at concentrations equal to the corresponding Kd and displacement of the ligand by the drugs was measured. The difference between total binding and nonspecific binding (determined in the presence of selective competitors) was defined as specific binding of the radioligand to the target receptor. The following transfected cell lines were used for the binding assays: HEK 293 cells (h5-HT1A, h5-HT2A, h5-HT2B, h5-HT2C, and hD2 receptors, hDAT, hNET, and hSERT), Chinese hamster ovary cells (hα 1A receptor), and Chinese hamster lung cells (hα 2A receptor).
3.1.1 Membrane preparations for receptor and transporter binding
For producing membrane preparations, transfected cells were harvested with trypsin/EDTA, washed with ice-cold phosphate buffered saline, and then pelleted by centrifugation (210 × g for 5 min at 4 °C). The pellets were frozen and stored at -80 °C until use. Frozen pellets were resuspended in 20 m L (receptor binding) or 400 m L (transporter binding) buffer (20 mM HEPES -NaOH, 10 mM EDTA, pH 7.4), and homogenized at 1,100 × g for 20 s (receptor binding) or 560 × g for 15 s (transporter binding); the homogenates were then centrifuged at 48,000 × g for 30 min at 4 °C. For receptor binding assays, the supernatants were discarded and the pellets were resuspended in 20 mL buffer (20 mM HEPES-NaOH, 0.1 mM EDTA, pH 7.4) and homogenized at 1 ,100 × g for 20 s. Centrifugation and discarding of the supernatant were repeated once, and the final pellet was then resuspended in buffer and homogenized.
3.1.2 Serotonin 5-HT1A and 5-HT2A receptor binding
Competitive binding at the h5-HT1A and h5-HT2A receptor was determined using 0.90 nM [ 3H]8-hydroxy-2-(di-n-propylamine)tetralin ([ 3H]8-OH-DPAT; h5-HT1A receptor agonist) and 0.40 nM [3H]ketanserin (h5-HT2 receptor antagonist) as radioligands. The density and affinity of [ 3H]8-OH-DPAT […]
Molecule `CCCCc1cc(OC)c(CC(C)N)cc1OC` (stereo not drawn) [DOBU, 4-butyl-2,5-dimethoxyamphetamine] had a pKi of 5.77. In turn, `COc1ccc(OC)c(CC(C)N)c1.Cl` (stereo not drawn) [2,5-DMA, 2,5-Dimethoxyamphetamine hydrochloride] showed a pKi of 5.36. Take `CCCCCc1cc(OC)c(CC(C)N)cc1OC` (stereo not drawn) [DOAM, 4-amyl-2,5-dimethoxyamphetamine]: the pKi is 5.64. As to `CCc1cc(OC)c(CC(C)N)cc1OC` (stereo not drawn) [DOET, 4-ethyl-2,5-dimethoxyamphetamine], the pKi was < 5.30. `CCCc1cc(OC)c(CC(C)N)cc1OC.Cl` (stereo not drawn) [DOPR, 4-propyl-2,5-dimethoxyamphetamine hydrochloride] gave a pKi of 6.29.

Take `COc1cc(CC(C)N)c(OC)cc1C` (stereo not drawn) [DOM, 4-methyl-2,5-dimethoxyamphetamine]: the pKi is < 5.30.

What is called pKi is the negative decadic logarithm of the Ki, by convention in mol/L.
